Results on 16 molecules are retold here after PubChem BioAssay (NCI).

What all share (assay): inhibition of tumour cell growth, NCI panel, 48 h
Test [1] concerns K-562 leukemia.
Test [2] concerns MDA-MB-435.
In test [3] the test system is CAKI-1 renal.
Test [4] relates to SF-295 CNS.
Test [5] concerns NCI/ADR-RES ovarian.
In test [6] the test system is A549 NSCLC.
For test [7], the system named is OVCAR-4 ovarian.
Test [8] has as its system 786-0 renal.
For test [9], the system named is KM12 colon.
In test [10] the test system is U251 CNS.

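Cells were grown in 96-well plates and exposed to each compound for 48 hours at five concentrations; endpoints were interpolated linearly between bracketing concentrations, or set to the highest concentration if not reached. Abbreviation: GI50, concentration required for 50% inhibition of growth. TGI marks complete inhibition of growth.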 Where a SMILES comes first, the peptide text is derived from it. [ ]: non-standard residue; d: D form. The star is where a group is joined. dTle = CC(C)(C)[C@@H](N)C(=O)O; 4Abz = Nc1ccc(C(=O)O)cc1; NHOH = ON*

For the molecule `Cc1cc(-c2ccccn2)cc(C)c1/C=C/c1cncc(-c2nn[nH]n2)c1`, the GI50 in test [1], in [2], in test [3], in test [4], in test [5] and in test [6] was above 25 µM each time. For the same molecule, the GI50 in [7], in [8], in test [9] and in test [10] was above 25 µM each time. Further, the TGI in test [1], in test [2], in [3], in [4], in [5] and in test [6] was above 25 µM in each case. For the same molecule, the TGI in [7], in [8], in test [9] and in [10] was above 25 µM throughout.
In the case of `NS(=O)(=O)NCCNc1nonc1C(=Nc1ccc(F)c(Br)c1)NO`, the GI50 in [1] was 35.4 µM; in test [2] it was 32 µM; in test [3] it was 33.8 µM; in [4] it was 27 µM; in test [5] it was above 100 µM; in test [6] it was 68.9 µM. Moreover, the GI50 in [7] was 32.8 µM; in [8], 48.8 µM; in [9] it was 34.8 µM; in test [10], 53.1 µM. Further, the TGI in [1], in test [2], in test [3], in test [4], in test [5] and in test [6] was above 100 µM each time. Further, the TGI in test [7], in test [8], in test [9] and in test [10] was above 100 µM each time.
`C[C@@H](NC(=O)[C@H](NC(=O)[C@@H]1CCCN1C(=O)CNC(=O)c1ccc(N)cc1)C(C)(C)C)C(=O)NO` (H-[4Abz]GP[dTle][dA]-{NHOH}): the GI50 in [1], in [2], in test [3], in test [4], in test [5] and in test [6] was above 100 µM throughout. In addition, the GI50 in [7], in [8], in [9] and in test [10] was above 100 µM each time. Besides, the TGI in test [1], in test [2], in test [3], in test [4], in [5] and in [6] was above 100 µM in each case. Besides, the TGI in test [7], in test [8], in [9] and in test [10] was above 100 µM in each case.
Turning to `CCCCCCCCCCCCCCCCCCOCC(CCP(=O)(CP(=O)(O)O)Oc1ccccc1)OCCCCCCCCCCCCCCCCCC` (stereo not given), the TGI in test [1], in test [2], in [3], in test [4], in test [5] and in test [6] was above 100 µM each time. Also, the TGI in test [7], in test [8], in [9] and in [10] was above 100 µM throughout.
On to `O=C1/C(=C/c2ccc(Cl)cc2)CCC/C1=C\c1ccc(Cl)cc1`, for which the GI50 is 3.61 µM in test [1]; 2.78 µM in [2]; above 100 µM in test [3]; 3.83 µM in test [4]; 4.32 µM in test [5]; 3.63 µM in test [6]. Also, the GI50 in [7] was 5.17 µM; in test [8] it was 5.55 µM; in [9], 1.9 µM; in [10] it was 2.66 µM. In addition, the TGI was above 100 µM in test [1]; 18.8 µM in test [2]; above 100 µM in [3]; above 100 µM in test [4]; above 100 µM in test [5]; above 100 µM in test [6]. The TGI was above 100 µM in [7], above 100 µM in test [8], 3.75 µM in test [9] and 7.88 µM in test [10].
Turning to `CC1=C(C(=O)Nc2cc(Cl)c3[nH]ncc3c2)C(c2ccc(C(F)(F)F)cc2)CC(=O)N1` (stereo not given), the GI50 in test [1] is above 25 µM; in test [2] it was above 23.3 µM; in [3] it was above 25 µM; in test [4] it was 8.6 µM; in test [5], above 25 µM; in test [6], above 25 µM. The GI50 in [7] was above 25 µM; in test [8], 11.7 µM; in test [9] it was 20 µM; in test [10], above 25 µM. In addition, the TGI in test [1], in [2], in [3], in test [4], in [5] and in test [6] was above 25 µM throughout. In addition, the TGI in test [7], in [8], in test [9] and in [10] was above 25 µM in each case.
As to `CO/N=C(\COc1ccc2oc(-c3ccccc3)cc(=O)c2c1)c1ccc(OC)cc1`, the GI50 in [1] is 27.3 µM; in test [2], 15 µM; in [3], 22.7 µM; in test [4] it was 21.7 µM; in test [5], 21.9 µM; in [6], 24.4 µM. Moreover, the GI50 in test [7] was 19.7 µM; in test [8], 21.9 µM; in [9] it was 27.1 µM; in test [10] it was 22.3 µM. For the same molecule, the TGI is above 100 µM in [1]; 36.9 µM in [2]; 69.2 µM in [3]; 48.9 µM in [4]; 51.4 µM in test [5]; 73 µM in test [6]. Also, the TGI is 73.9 µM in test [7], 48.9 µM in [8], above 100 µM in test [9] and 53.6 µM in test [10].
Consider `Oc1ccc(C2c3ccccc3Oc3ccccc32)c2cccnc12`, for which the GI50 in [1] is 1.37 µM; in test [2], 3.07 µM; in test [3] it was 0.568 µM; in test [4], 0.499 µM; in [5] it was 1.59 µM; in [6], 1.79 µM. For the same molecule, the GI50 in test [7] was 2.08 µM; in [8], 1.64 µM; in [9] it was 1.71 µM; in [10], 0.845 µM. Further, the TGI in test [1], in test [2], in test [3], in [4], in test [5] and in test [6] was above 100 µM throughout. Moreover, the TGI is above 100 µM in test [7], 4.85 µM in test [8], above 100 µM in test [9] and above 100 µM in test [10].
In the case of `CCn1c(-c2nonc2N)nc2c(C#CC(C)(C)O)ncc(OC[C@H]3CCCNC3)c21`, the GI50 was 11.4 µM in test [1]; 13.7 µM in test [2]; 32.7 µM in test [3]; 0.794 µM in test [4]; above 100 µM in test [5]; 15.6 µM in [6]. Also, the GI50 was 31.4 µM in test [7], 0.46 µM in [8], 4.54 µM in [9] and 0.533 µM in test [10]. The TGI in test [1] is above 89.2 µM; in test [2], 30.3 µM; in [3], above 100 µM; in [4] it was 22 µM; in test [5] it was above 100 µM; in test [6], 62.3 µM. Besides, the TGI in [7] is 92.2 µM; in test [8], 16 µM; in test [9] it was 63.8 µM; in test [10] it was 21.9 µM.
Regarding `CCN(CC)C(=S)SCN1C(=O)c2ccccc2S1(=O)=O`, the GI50 in test [1] is 24 µM; in test [2] it was 60.9 µM; in [3] it was above 70.5 µM; in [4] it was above 67.2 µM; in [5] it was above 44.3 µM; in test [6], 41.2 µM. The GI50 is 35.4 µM in test [7], 31.4 µM in [8], 14.4 µM in test [9] and 52.5 µM in test [10]. Moreover, the TGI in test [1] was above 100 µM; in test [2], above 100 µM; in test [3] it was above 100 µM; in [4], above 100 µM; in [5], above 64.9 µM; in test [6], above 100 µM. The TGI in test [7], in test [8], in [9] and in test [10] was above 100 µM throughout.
For the molecule `CN(Cc1cc(Br)cc(Br)c1O)Cc1c(O)ccc2ccccc12`, the TGI in test [1] is 51.9 µM; in test [2], 40.3 µM; in [3], 31.5 µM; in test [4], 47.5 µM; in test [5] it was above 100 µM; in [6] it was 40.9 µM. For the same molecule, the TGI in [7] worked out at 34.9 µM; in test [8], 36.2 µM; in [9], 33.5 µM; in test [10], 41 µM.
Regarding `CSC(=S)OC1CC(n2cnc3c(NC(=O)c4ccccc4)ncnc32)OC1CO[Si](C)(C)C(C)(C)C` (stereo not given), the TGI was above 49.5 µM in [1]; 27.9 µM in test [2]; above 46.4 µM in test [3]; above 56.2 µM in [4]; above 56.2 µM in test [5]; above 100 µM in [6]. For the same molecule, the TGI in test [7] is above 56.2 µM; in test [8], above 56.2 µM; in test [9] it was 41.6 µM; in test [10], 44.4 µM.
Take `CCC(=O)Nc1ccc(C)c(-c2ccc(C(=O)NCC3CC3)cc2)c1`: the GI50 in test [1], in [2], in test [3], in test [4], in [5] and in [6] was above 25 µM in each case. Moreover, the GI50 in [7] was above 24.1 µM; in test [8], above 25 µM; in [9], above 25 µM; in test [10], above 25 µM. The TGI in test [1], in [2], in [3], in test [4], in test [5] and in [6] was above 25 µM each time. For the same molecule, the TGI in [7], in test [8], in test [9] and in test [10] was above 25 µM each time.
For the molecule `CC1(C)NCCC[C@]2(C)[C@H]3CC[C@@H]4[C@H]5[C@H](C(=O)/C=C/c6ccccn6)CC[C@]5(CO)CC[C@@]4(C)[C@]3(C)CC[C@@H]12`, the GI50 in test [1] was 2.19 µM; in test [2], 2.11 µM; in test [3], 2.14 µM; in test [4], 1.82 µM; in [5], 3.43 µM; in [6] it was 2.88 µM. In addition, the GI50 in test [7] was 3.51 µM; in [8], 2.43 µM; in [9], 2.07 µM; in test [10] it was 1.68 µM. In addition, the TGI in test [1] was above 100 µM; in test [2], 4.9 µM; in test [3], 6.85 µM; in test [4] it was 3.47 µM; in test [5], 13.9 µM; in [6] it was 11.2 µM. Moreover, the TGI in [7] was determined as 13 µM; in test [8], 6.26 µM; in [9], 4.27 µM; in test [10], 3.24 µM.
For `COC(=O)c1cc2c3ccccc3[nH]c2c2sccc12`, the GI50 is 15.2 µM in test [1]; 20.3 µM in test [2]; 13.7 µM in test [3]; 8.57 µM in [4]; 28.1 µM in test [5]; 25.5 µM in [6]. Besides, the GI50 in test [7] was 26.5 µM; in test [8], 13.8 µM; in [9] it was 12.3 µM; in test [10] it was 14.3 µM. The TGI in [1] is above 100 µM; in test [2], above 100 µM; in test [3] it was 98.3 µM; in test [4] it was 48.7 µM; in [5], above 100 µM; in [6], above 100 µM. The TGI in [7] amounted to 76.9 µM; in [8], 40.7 µM; in [9] it was 87.2 µM; in [10] it was 34 µM.
For `Clc1ccccc1CNc1c2ccccc2nc2ccccc12`, the GI50 in [1] was 1.48 µM; in test [2] it was 1.96 µM; in test [3], 2.11 µM; in test [4] it was 1.59 µM; in [5] it was 2.04 µM; in [6] it was 2.21 µM. Moreover, the GI50 is 2.13 µM in [7], 2.72 µM in test [8], 2.03 µM in [9] and 2.36 µM in test [10]. Also, the TGI in test [1] came out at 41.7 µM; in test [2] it was 8.14 µM; in test [3], 8.08 µM; in test [4], 7.31 µM; in [5], 9.52 µM; in test [6] it was 10.7 µM. Moreover, the TGI in [7] was 8.11 µM; in test [8], 11 µM; in [9], 8.28 µM; in [10] it was 9.7 µM.
